Data as given in patent publication US20220202912A1, “Polypeptides in Preparation of Drugs for Treatment or Prevention of Rheumatoid Arthritis” (priority 2011, published 2022).
Where no end group is shown, it is not given here.

Assays:
[1] = tested on: macrophages (PMA-induced U937 cells); assay: flow cytometry macrophage apoptosis test (AV-FITC/PI); type: cell-based, Human; conditions: 24 h; Adalimumab 50 μg/mL, mPEG-SC20k-HM-3 13.5 μmol/L
Method: Human U937 cells are added to a 6-well plate (1.5×10^5 cells/mL), PMA (25 ng/mL) is added to perform induction for 48 h for differentiation into macrophages, and the macrophages are added to the positive drug Adalimumab group (50 μg/mL), the HM-3 control group (13.5 μmol/L), the mPEG-SC20k-HM-3 group (13.5 μmol/L), isovolumetric PBS is added to the blank group and the model group, and the cells are incubated in a CO2 incubator at 37° C. for 24 h. For the H2O2 group (3%, 20 μL/mL volume) test, hydrogen peroxide is added in the first half hour to normal cells for apoptosis induction control.
1000 g of solution is centrifuged for 5 min, and supernatant is discarded. Washing is performed once with PBS.
The apoptosis is tested on the flow cytometer according to the instructions of the AV-FITC/PI apoptosis kit.

[2] = tested on: TNF-α; assay: in vivo imaging of TNF-α expression, AIA transgenic TNF-luc mice; set-up: species or system BALB/c transgenic TNF-luc mice; conditions: Adalimumab 8 mg/kg; for Fluorescence intensity (in vivo imaging): mPEG-SC20k-HM-3 20 mg/kg sc; for in vivo fluorescence densities: mPEG-SC20k-HM-3 20 mg/kg
Method: […] After the mice are lightly anesthetized with ether, the mice are fixed within 5-20 min and put into an in vivo imager, the imager is covered with an instrument lid, on-fluro and om-photo names in the desktop imaging interface of the computer are clicked, and the expose button is clicked to complete the fluorescence and white light photos of mice in vivo imaging.
(1) Imaging principle: Fluorescein substrate is injected intraperitoneally, and binds to luciferase carried on TNF-α protein to catalyze luminescence. Through the Luciferase fluorescent reporter group on TNF, the change of the fluorescence area in mice is observed, and the expression of TNF-α is evaluated, so as to evaluate the impact of mPEG-SC20k-HM-3 on the expression of TNF-α.
(2) Operation steps: Start the Carestreama in vivo imager, open the MI software, click the Capture button, and set photographing conditions. In the on-flour fluorescence mode, set the parameters X Binning. 2 pixels, Y Binning. 2 pixels; Illumination Source: Multi-wavelength; f-stop: 2.50; field of view (FOV) (mm): 120; focal plane (mm): Tray. Excitation filter: 430 nm, emission filter: 535 nm; exposure time: 30s. Click the Expose button to photograph fluorescence. Under the om-photo name, set the parameters X Binning. 0 pixels, Y Binning. 0 pixels; Illumination Source: None; f-stop: 2.50; FOV (mm): 120; focal plane (mm): Tray. Excitation filter: 0 nm, emission filter: 0 nm; exposure time: 0.175 s. Click the Expose button to photograph white light.
(3) Image processing and output: Analyze and adjust photos of fluorescence function imaging and white light structure imaging to the best, and the FOV is consistent. Click Window→Tie, Display→Invert, Image Display→overlay→Transparency for image stacking. In the image output process, in a navigation panel, click Annotation→Width/Heigh→Scale Analysis Image for setting, click Add Annotation Bar for adding a title, click Add Intensity Scale for adding a ruler, and set Horizontal, Size, Style, Number of Significant Dig, and Horizontal/Vertical Length. Output a picture in Tiff format.

[3] = tested on: TNF-α; assay: immunohistochemistry of TNF-α in ankle joints, CIA transgenic TNF-luc mice; type: in vivo, BALB/c transgenic TNF-luc mice; conditions: Adalimumab 8 mg/kg, mPEG-SC20k-HM-3 20 mg/kg
Method: (§1) Determining criteria: The experimental results are determined based on the proportion of positive cells in all tissue cells and the staining intensity of positive cells: A: scoring is performed based on the number of chromogenic cells, 1 point is given when the proportion of the number of positive cells is less than ⅓, 2 points are given when the proportion of the number of positive cells is ⅓-⅔, and 3 points are given when the proportion of the number of positive cells is greater than or equal to ⅔. B: Based on the color depth of cells, 0 point is given when no cells have positive reaction, 1 point is given when cells are light yellow, 2 points are given when the cells are light brown, and 3 points are given when the cells are dark brown. Point product=A×B. The result is expressed in point product.

[4] = tested on: λ-carrageenan acute inflammation; assay: acute toe swelling in carrageenan-induced transgenic TNF-luc mice; type: in vivo, BALB/c transgenic TNF-luc mice; conditions: Adalimumab 8 mg/kg, mPEG-SC20k-HM-3 20 mg/kg sc
Method: Before modeling, 8 animals are randomly divided into 4 groups (n=2), a normal group, a model group, a positive drug group and a test treatment group. One hour before modeling, the normal group and the model group are hypodermically injected with normal saline (0.2 mL/20 g of body weight) respectively; the positive drug group is hypodermically injected with Adalimumab (8 mg/kg of body weight), 15 d/time, once; and the test treatment group is hypodermically injected with mPEG-SC20k-HM-3 (20 mg/kg of body weight), 2 d/time, twice. The initial ankle width, foot palm width and toe thickness of the left foot are measured as initial values.
Modeling starts at hour 0, 50 μL of 1% carrageenan is hypodermically injected into the bottom of left toe of transgenic TNF-luc mice, and the ankle swelling degree, foot palm swelling degree and toe swelling degree of each group of mice are measured with a vernier caliper at […], hour 1, hour 3, hour 5, hour 7, hour 9, hour 12, hour 24, hour 48, hour 72 and hour 96 respectively. Method for calculating toe swelling degree:
Swelling degree of left ankle (cm)=swelling thickness of left ankle during measurement−thickness of left ankle during initial measurement.
Swelling degree of left foot palm (cm)=swelling thickness of left foot palm during measurement−thickness of left foot palm during initial measurement.
Swelling degree of left toe (cm)=swelling thickness of left toe during measurement−thickness of left toe during initial measurement.

[5] = tested on: IL-6; assay: immunohistochemistry of IL-6 in spleen and thymus, CIA transgenic TNF-luc mice; type: in vivo, BALB/c transgenic TNF-luc mice; conditions: Adalimumab 8 mg/kg, mPEG-SC20k-HM-3 20 mg/kg
Method: as §1

Row | Substance | rate of early apoptosis of macrophages [1] [%] | rate of late apoptosis of macrophages [1] [%] | Fluorescence intensity (in vivo imaging) ([2]; 17 d (treatment starts)) | Fluorescence intensity (in vivo imaging) ([2]; 32 d) | in vivo fluorescence densities ([2]; day 17, as printed in text) | in vivo fluorescence densities ([2]; day 32, as printed in text) | immunohistochemical score of TNF-α in ankle joint cavity [3] | left ankle swelling ([4]; 1 h) [cm] | left foot (palm) swelling ([4]; 1 h) [cm] | left toe swelling ([4]; 1 h) [cm] | left ankle swelling ([4]; 3 h) [cm] | left foot (palm) swelling ([4]; 3 h) [cm] | left toe swelling ([4]; 3 h) [cm] | left ankle swelling ([4]; 5 h) [cm] | left foot (palm) swelling ([4]; 5 h) [cm] | left toe swelling ([4]; 5 h) [cm] | left ankle swelling ([4]; 7 h) [cm] | left foot (palm) swelling ([4]; 7 h) [cm] | left toe swelling ([4]; 7 h) [cm] | left ankle swelling ([4]; 9 h) [cm] | also measured
1 | Adalimumab [reference compound] | 14.2 | 15.2 | 46.746 ± 3.457 ×10^5 | 26.446 ± 2.659 ×10^5 | 46.75±3.46 10^6 | 26.45±2.66 10^6 | 0.160±0.109 | 0.027 ± 0.018 | 0.042 ± 0.035 | 0.094 ± 0.054 | 0.008 ± 0.048 | 0.071 ± 0.016 | 0.115 ± 0.018 | 0.067 ± 0.010 | 0.092 ± 0.014 | 0.150 ± 0.028 | 0.064 ± 0.006 | 0.094 ± 0.011 | 0.126 ± 0.014 | 0.045 ± 0.004 | left foot (palm) swelling ([4]; 9 h): 0.088 ± 0.025 cm; left toe swelling ([4]; 9 h): 0.126 ± 0.021 cm; left ankle swelling ([4]; 12 h): 0.050 ± 0.003 cm; left foot (palm) swelling ([4]; 12 h): 0.090 ± 0.031 cm; left toe swelling ([4]; 12 h): 0.114 ± 0.025 cm; left ankle swelling ([4]; 24 h): 0.086 ± 0.031 cm; left foot (palm) swelling ([4]; 24 h): 0.132 ± 0.006 cm; left toe swelling ([4]; 24 h): 0.235 ± 0.134 cm; left ankle swelling ([4]; 48 h): 0.105 ± 0.075 cm; left foot (palm) swelling ([4]; 48 h): 0.152 ± 0.074 cm; left toe swelling ([4]; 48 h): 0.264 ± 0.122 cm; left ankle swelling ([4]; 72 h): 0.096 ± 0.051 cm; left foot (palm) swelling ([4]; 72 h): 0.150 ± 0.066 cm; left toe swelling ([4]; 72 h): 0.238 ± 0.113 cm; left ankle swelling ([4]; 96 h): 0.076 ± 0.034 cm; left foot (palm) swelling ([4]; 96 h): 0.133 ± 0.061 cm; left toe swelling ([4]; 96 h): 0.174 ± 0.102 cm; immunohistochemical score of IL-6 in spleen [5]: 0.008±0.003; immunohistochemical score of IL-6 in thymus [5]: 0.030±0.031
2 | mPEG-SC20k-Ile-Val-Arg-Arg-Ala-Asp-Arg-Ala-Ala-Val-Pro-Gly-Gly-Gly-Gly-Arg-Gly-Asp ({mPEG‑SC 20k}-IVRRADRAAVPGGGGRGD) [polypeptide III, No. 3] | 28.0 | 14.7 | 41.604 ± 6.080 ×10^5 | 31.956 ± 1.170 ×10^5 | 41.6±1.68 10^6 | 31.96±1.17 10^6 | 0.143±0.055 | 0.060 ± 0.045 | 0.101 ± 0.027 | 0.132 ± 0.054 | 0.079 ± 0.052 | 0.092±0.054 | 0.114 ± 0.025 | 0.117 ± 0.033 | 0.125 ± 0.035 | 0.146 ± 0.003 | 0.074 ± 0.014 | 0.116 ± 0.034 | 0.174 ± 0.065 | 0.061 ± 0.013 | left foot (palm) swelling ([4]; 9 h): 0.086 ± 0.008 cm; left toe swelling ([4]; 9 h): 0.124 ± 0.014 cm; left ankle swelling ([4]; 12 h): 0.055 ± 0.018 cm; left foot (palm) swelling ([4]; 12 h): 0.091 ± 0.004 cm; left toe swelling ([4]; 12 h): 0.113 ± 0.027 cm; left ankle swelling ([4]; 24 h): 0.066 ± 0.003 cm; left foot (palm) swelling ([4]; 24 h): 0.107 ± 0.010 cm; left toe swelling ([4]; 24 h): 0.136 ± 0.011 cm; left ankle swelling ([4]; 48 h): 0.051±0.044 cm; left foot (palm) swelling ([4]; 48 h): 0.105 ± 0.010 cm; left toe swelling ([4]; 48 h): 0.126 ± 0.031 cm; left ankle swelling ([4]; 72 h): 0.032±0.074 cm; left foot (palm) swelling ([4]; 72 h): 0.101 ± 0.016 cm; left toe swelling ([4]; 72 h): 0.094±0.034 cm; left ankle swelling ([4]; 96 h): 0.032±0.042 cm; left foot (palm) swelling ([4]; 96 h): 0.076±0.006 cm; left toe swelling ([4]; 96 h): 0.084±0.040 cm; immunohistochemical score of IL-6 in spleen [5]: 0.017±0.009; immunohistochemical score of IL-6 in thymus [5]: 0.040±0.021
